Results taken from article PMC11610143, “Characterization of dipyridamole as a novel ferroptosis inhibitor and its therapeutic potential in acute respiratory distress syndrome management” (Theranostics, 2024).

Tests used:
SOD1 (A549 cells) = biological target: T1, SOD1 (A549 cells) (Homo sapiens, UniProt P00441); assay: CETSA, western blot; assay type: biochemical; conditions: 10 μM DIPY, 30 min; A549 cells pretreated with RSL3 5 μM for 8 h; 45-72 °C
T1 construct: endogenous full-length SOD1 in A549 cells, read by western blot

[1] = biological target: T2, human SOD1 protein (#HY-P71048, MCE) (Homo sapiens, UniProt P00441); assay: SPR (Biacore T200, CM5 chip, SOD1 immobilised); assay type: binding
T2 construct: commercial human SOD1 protein (MCE); amine-coupled to CM5 chip
T2 sequence (P00441 2-154, one chain of several): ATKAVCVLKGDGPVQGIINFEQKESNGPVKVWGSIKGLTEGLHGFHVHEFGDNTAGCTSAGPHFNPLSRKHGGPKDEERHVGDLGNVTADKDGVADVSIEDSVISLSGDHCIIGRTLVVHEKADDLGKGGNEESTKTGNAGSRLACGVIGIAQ

T1 sequence (P00441 2-154): as the sequence (P00441 2-154, one chain of several) above

OCCN(CCO)c1nc(N2CCCCC2)c2nc(N(CCO)CCO)nc(N3CCCCC3)c2n1 [Dipyridamole]
thermal stability (CETSA) (SOD1 (A549 cells)): DIPY elevated the thermal stability of SOD1 compared with the control group
Kd [1]: 8.83 µM
